Legend:
Conditions in all cases: treatment: drug alone; 5 days
ACHN [1] = assay: GI50, drug alone; higher = less potent
Method: (§1)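 Primary HTS: 8 RCC cell lines treated with 8 doses (up to 10 uM) of each library drug alone for 5 days; viability read by CellTiter-Glo and normalised to DMSO. GI50 was fitted with XLfit (4-parameter), AUC is the area under the dose-response curve, and minimum viability is the lowest fraction of DMSO viability across doses.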

769-P [2] = assay: GI50, drug alone; higher = less potent
Method: as §1

TK-10 [3] = assay: GI50, drug alone; higher = less potent
Method: as §1

CAKI-1 [4] = assay: GI50, drug alone; higher = less potent
Method: as §1

UO-31 [5] = assay: GI50, drug alone; higher = less potent
Method: as §1

SN12C [6] = assay: GI50, drug alone; higher = less potent
Method: as §1

786-O [7] = assay: GI50, drug alone; higher = less potent
Method: as §1

A498 [8] = assay: GI50, drug alone; higher = less potent
Method: as §1

ACHN [9] = assay: minimum viability across doses, drug alone, relative to DMSO (fraction); higher = less growth inhibition
Method: as §1

769-P [10] = assay: as above
Method: as §1

TK-10 [11] = assay: as above
Method: as §1

CAKI-1 [12] = assay: as above
Method: as §1

UO-31 [13] = assay: as above
Method: as §1

SN12C [14] = assay: as above
Method: as §1

786-O [15] = assay: as above
Method: as §1

A498 [16] = assay: as above
Method: as §1

ACHN [17] = assay: AUC of dose-response viability curve, drug alone (arbitrary (AUC of normalised viability)); higher = less growth inhibition
Method: as §1

769-P [18] = assay: as above
Method: as §1

TK-10 [19] = assay: as above
Method: as §1

CAKI-1 [20] = assay: as above
Method: as §1

UO-31 [21] = assay: as above
Method: as §1

SN12C [22] = assay: as above
Method: as §1

786-O [23] = assay: as above
Method: as §1

A498 [24] = assay: as above
Method: as §1

Structure (SMILES)	GI50, drug alone (ACHN [1]) [nM]	GI50, drug alone (786-O [7]) [nM]	GI50, drug alone (769-P [2]) [nM]	GI50, drug alone (TK-10 [3]) [nM]	GI50, drug alone (CAKI-1 [4]) [nM]	GI50, drug alone (UO-31 [5]) [nM]	GI50, drug alone (SN12C [6]) [nM]	GI50, drug alone (A498 [8]) [nM]	minimum viability across doses (ACHN [9])	minimum viability across doses (769-P [10])	minimum viability across doses (TK-10 [11])	minimum viability across doses (CAKI-1 [12])	minimum viability across doses (UO-31 [13])	minimum viability across doses (SN12C [14])	minimum viability across doses (786-O [15])	minimum viability across doses (A498 [16])	AUC of dose-response viability curve (ACHN [17])	AUC of dose-response viability curve (769-P [18])	AUC of dose-response viability curve (TK-10 [19])	AUC of dose-response viability curve (CAKI-1 [20])	AUC of dose-response viability curve (UO-31 [21])	AUC of dose-response viability curve (SN12C [22])	AUC of dose-response viability curve (786-O [23])	AUC of dose-response viability curve (A498 [24])
C=CC(=O)Nc1cc2c(Nc3ccc(F)c(Cl)c3)ncnc2cc1OCCCN1CCOCC1 [CI-1033 (Canertinib)]	532	> 10000	1000	626	5530	> 10000	5220	8550	0.158	0.344	0.156	0.382	0.557	0.104	0.487	0.141	2.09	2.24	2.11	2.8	3.48	2.52	2.52	3.62
Cc1nc(N)sc1-c1ccnc(Nc2ccc(N3CCOCC3)cc2)n1 [CYC116]	975	727	2990	1890	693	8170	3210	7870	0.107	0.137	0.152	0.027	0.00864	0.207	0.00272	0.287	2.45	2.86	2.31	2.23	3.6	2.72	1.88	3.68
COc1cc2c(Oc3ccc4[nH]c(C)cc4c3F)ncnc2cc1OCCCN1CCCC1 [Cediranib (AZD2171)]	969	2600	5430	2290	740	2980	2870	5360	0.0987	0.293	0.0469	0.0807	0.0213	0.248	0.129	0.17	2.5	2.94	2.62	2.35	2.76	2.55	2.5	3.15
N#CCNC(=O)c1ccc(-c2ccnc(Nc3ccc(N4CCOCC4)cc3)n2)cc1 [Cyt387]	1980	941	6390	2700	1420	4280	8320	> 10000	0.0637	0.29	0.152	0.0592	0.0114	0.434	0.00487	0.868	2.82	3.08	2.6	2.51	3.36	3.06	2.19	4.74
CNC(=O)c1cc(Oc2ccc(NC(=O)Nc3cc(C(C)(C)C)nn3-c3ccc4ncccc4c3)c(F)c2)ccn1 [DCC-2036 (Rebastinib)]	1790	3760	> 10000	2140	1250	1720	2920	7590	0.0439	0.752	0.0459	0.104	0.00743	0.0299	0.359	0.0163	2.92	3.43	2.94	2.63	4.08	2.95	2.8	3.2
CN1CCN(c2ccc3nc(-c4c(N)c5c(F)cccc5[nH]c4=O)[nH]c3c2)CC1 [Dovitinib (TKI-258)]	510	6950	2560	2260	451	3540	956	6940	0.116	0.0627	0.252	0.13	0.207	0.079	0.395	0.351	2.18	2.64	2.5	2.18	3.69	2.36	3.27	3.15

Second part, led by results:

GI50, drug alone (ACHN [1]) [nM]	GI50, drug alone (786-O [7]) [nM]	Structure (SMILES)	GI50, drug alone (769-P [2]) [nM]	GI50, drug alone (TK-10 [3]) [nM]	GI50, drug alone (CAKI-1 [4]) [nM]	GI50, drug alone (UO-31 [5]) [nM]	GI50, drug alone (SN12C [6]) [nM]	GI50, drug alone (A498 [8]) [nM]	minimum viability across doses (ACHN [9])	minimum viability across doses (769-P [10])	minimum viability across doses (TK-10 [11])	minimum viability across doses (CAKI-1 [12])	minimum viability across doses (UO-31 [13])	minimum viability across doses (SN12C [14])	minimum viability across doses (786-O [15])	minimum viability across doses (A498 [16])	AUC of dose-response viability curve (ACHN [17])	AUC of dose-response viability curve (769-P [18])	AUC of dose-response viability curve (TK-10 [19])	AUC of dose-response viability curve (CAKI-1 [20])	AUC of dose-response viability curve (UO-31 [21])	AUC of dose-response viability curve (SN12C [22])	AUC of dose-response viability curve (786-O [23])	AUC of dose-response viability curve (A498 [24])
303	2900	CC(O)C(=O)O.CC(O)C(=O)O.CN1CCN(c2ccc3nc(-c4c(N)c5c(F)cccc5[nH]c4=O)[nH]c3c2)CC1 [Dovitinib Dilactic acid (TKI258 Dilactic acid)]	3050	3160	430	6520	1160	> 10000	0.107	0.034	0.304	0.0485	0.342	0.0691	0.191	0.494	2	3.15	2.61	2.21	4.66	2.38	2.9	4.64
> 10000	> 10000	COc1cc2nccc(Oc3ccc(NC(=O)NC4CC4)c(Cl)c3)c2cc1C(N)=O [E7080 (Lenvatinib)]	> 10000	> 10000	2270	> 10000	> 10000	> 10000	0.532	0.907	0.806	0.267	1.18	0.734	0.786	0.941	3.06	3.46	3.24	2.71	2.25	3.21	3.13	3.79
344	518	Cc1cc(Nc2cc(N3CCN(C)CC3)nc(/C=C/c3ccccc3)n2)n[nH]1.O=C(O)[C@H](O)[C@@H](O)C(=O)O [ENMD-2076]	2000	1150	456	1560	1090	4110	0.109	0.227	0.146	0.038	0.0165	0.162	0.0558	0.427	2.1	2.64	2.31	2.02	3.01	2.46	1.82	3.06
